Laboratory results as given in patent US20060188913A1, “Methods and products for enhancing immune responses using imidazoquinoline compounds” (University of Iowa Research Foundation, priority 2001, published 2006).

How the values were obtained:
Format in all cases: cell-based
human PBMC [1] = assay: IL-6 secretion by human PBMC (ELISA), with or without chloroquine; conditions: 10 μg/ml chloroquine, 24 h, IL-6, FIG. 9
Procedure: Vasilakos J P et al. (2000) Cell Immunol 204:64-74. Human PBMC (n=3) were cultured for 24 h with varying concentrations of R-848 ([…]), varying concentrations of CpG ODN 2006 (0.8-6.0 μg/ml), SEB (50 ng/ml), or media alone. […] IL-6 in the supernatants was measured by ELISA. […] TLR9 is believed to have intracellular expression only.

hTLR9 = target: T1, hTLR9 (Homo sapiens, UniProt Q9NR96, H530R/Q688R); assay: Reconstitution of hTLR9 signaling in 293 fibroblasts (NF-kappa B luciferase, IL-8 ELISA); conditions: 2006 2 μM, LPS 100 ng/ml, FIG. 10
T1 construct: 293-TLR9-Luc cells contain a genomic copy of the hTLR9 open reading frame and the NF-kappa B-luciferase cassette; expressed in transfected cells; host or cells: 293-TLR9-Luc (stably transfected human embryo kidney 293 cells)
T1 sequence (Q9NR96 26-1032 H530R/Q688R): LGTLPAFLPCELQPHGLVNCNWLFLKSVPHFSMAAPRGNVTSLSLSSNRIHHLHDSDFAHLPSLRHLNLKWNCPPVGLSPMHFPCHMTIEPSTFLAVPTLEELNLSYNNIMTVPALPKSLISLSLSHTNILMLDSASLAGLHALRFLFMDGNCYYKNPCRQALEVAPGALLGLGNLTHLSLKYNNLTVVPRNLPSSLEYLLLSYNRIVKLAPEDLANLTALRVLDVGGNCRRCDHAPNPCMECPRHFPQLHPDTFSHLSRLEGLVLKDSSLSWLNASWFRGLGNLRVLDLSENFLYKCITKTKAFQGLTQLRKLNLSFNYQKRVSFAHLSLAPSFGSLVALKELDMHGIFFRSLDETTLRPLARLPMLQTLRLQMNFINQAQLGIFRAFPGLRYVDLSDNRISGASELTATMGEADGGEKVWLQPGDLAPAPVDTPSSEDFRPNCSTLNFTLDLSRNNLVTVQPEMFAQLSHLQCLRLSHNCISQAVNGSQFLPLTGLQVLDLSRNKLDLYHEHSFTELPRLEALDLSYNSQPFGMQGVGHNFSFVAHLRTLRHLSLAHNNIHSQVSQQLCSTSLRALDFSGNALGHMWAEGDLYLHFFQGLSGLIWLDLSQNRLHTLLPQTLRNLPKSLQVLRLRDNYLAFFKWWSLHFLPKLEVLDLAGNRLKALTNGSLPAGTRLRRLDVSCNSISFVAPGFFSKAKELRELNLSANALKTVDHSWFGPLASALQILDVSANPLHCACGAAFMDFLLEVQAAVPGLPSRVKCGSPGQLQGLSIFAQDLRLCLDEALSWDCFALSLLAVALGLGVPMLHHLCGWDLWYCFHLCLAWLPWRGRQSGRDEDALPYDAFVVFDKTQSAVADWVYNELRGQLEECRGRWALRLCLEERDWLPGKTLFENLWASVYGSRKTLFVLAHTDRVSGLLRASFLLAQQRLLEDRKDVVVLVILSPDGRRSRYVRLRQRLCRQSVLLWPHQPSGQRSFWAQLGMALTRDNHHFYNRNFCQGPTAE
Description: Methods for cloning murine and human TLR9 have been described in pending U.S. patent application Ser. No. 09/954,987, filed Sep. 17, 2001, and published PCT application PCT/US01/29229, the contents of which are incorporated by reference. Human TLR9 cDNA (SEQ ID NO:6, GenBank Accession No. AF245704) and murine TLR9 cDNA (SEQ ID NO:8, GenBank Accession No. AF348140) in pT-Adv vector (from Clontech) were individually cloned into the expression vector pcDNA3.1 (−) from Invitrogen using the EcoRi site. Utilizing a “gain of function” assay it was possible to reconstitute human TLR9 (hTLR9) and murine TLR9 (mTLR9) signaling in CpG-DNA non-responsive human 293 fibroblasts (ATCC, CRL-1573). The expression vectors mentioned above were transfected into 293 fibroblast cells using the calcium phosphate method. […]
Since NF-kappa B activation is central to the IL-1/TLR signal transduction pathway (Medzhitov R et al. (1998) Mol Cell 2:253-258 (1998); Muzio M et al. (1998) J Exp Med 187:2097-101), cells were transfected with hTLR9 or co-transfected with hTLR9 and an NF-kappa B-driven luciferase reporter construct. […] After stimulus with CpG-ODN (2006, 2 μM, […], SEQ ID NO:1), GpC-ODN (2006-GC, 2 μM, […], SEQ ID NO:10), LPS (100 ng/ml) or media, NF-kappa B activation by luciferase readout (8 h, FIG. 10A) or IL-8 production by ELISA (48 h, FIG. 10B) were monitored. […]

human PBMC [2] = assay: IP-10 secretion by human PBMC (ELISA); conditions: 48 hours, ODN 0.2-3.0 μg/ml versus R-848 0.01-1.0 μg/ml, FIG. 6A
Procedure: This experiment investigated the induction of the Th1 cytokine IFN-gamma as well as the Th1-related chemokine IP-10 (IFN-gamma inducible protein). Unfractionated human PBMC from three donors were incubated for 48 hours in the presence of varying concentrations of R-848 (0.01-1.0 μg/ml), varying concentrations of CpG ODN 2006 (0.2-3.0 μg/ml), varying concentrations of negative control ODN 5177 (0.2-3.0 μg/ml), SEB (50 ng/ml), or media alone, and then the concentrations of IP-10 and IFN-gamma in the supernatant were measured by ELISA.
In FIG. 6B, the combined effects of R-848 and CpG ODN (e.g., #2006) on IP-10 secretion are shown. Human PBMCs from three different donors were incubated for 48 hours with the indicated concentrations of ODNs and R-848, either individually or together. Supernatants were harvested and IP-10 was measured by ELISA. The data represent mean cytokine amounts.

response of cells expressing hTLR9 (NF-kappa B luciferase 8 h, IL-8 48 h) (hTLR9): responded to CpG-DNA
Substance: CpG ODN 2006
inhibition of the stimulant's activity by chloroquine (in words) (human PBMC [1]): completely abolish
IP-10 induction (human PBMC [2]): induced similar amounts of IP-10 compared to R-848
